Experimental data as given in patent US8628961B2, “Small molecule antagonists of phosphatidylinositol-3,4,5-triphosphate (PIP3) and uses thereof” (Tufts University, priority 2010, dated 2014).

How the values were obtained:
HUVEC = assay: Endothelial tube formation assay on Matrigel; format: cell-based, human; conditions: P>0.05
Experimental: The tube formation assay was performed in 96-well plates. Wells were pre-coated with 70 μl of the Matrigel basement membrane matrix (BD Biosciences) per well for 1 hr at 37° C. HUVEC were suspended in serum-free M199 medium and plated on Matrigel at a density of 2×10^4 cells per well. PIT-1 was added at indicated concentrations (3.125-100 μM). After an 8 hr incubation at 37° C., phase-contrast images of the endothelial tubes were obtained using a Nikon TE2000 microscope, and tube formation was assessed by counting the number of closed tubes in five random fields from each well.

cancer cells = assay: Cancer cell invasion through matrigel; format: cell-based
Excerpt: Simpson K J et al. (2004) Cancer Res 64:8694-701.

HUVEC cells = assay: HUVEC migration, wound healing and transwell assays; format: cell-based, human
Experimental: (§1) Two models of cell migration were used, a transwell migration model and a wound closure model. Migration of cancer and endothelial cells was evaluated using 24-transwell Boyden chamber (Costar, Bedford, Mass.) with a polystyrene membrane (6.5 mm diameter, 10 μm thickness, and 8 μm pore size). Cells were suspended in serum-free media and seeded in the upper compartment of each well (2×10^4 cells/well) in the presence or absence of different compounds at the indicated concentrations. The lower compartment contained 600 μl of serum-free culture media supplemented with growth factors. After an 8-hr incubation at 37° C., cells were fixed and stained with 0.1% crystal violet. Non-migrating cells on the upper surface of the filter were removed, and the stained cells that migrated to the lower side were photographed using a phase-contrast microscope (Nikon, Japan) in five random fields. The cells were lysed with 10% acetic acid, and colorimetric determination was made at 595 nm using Wallac Victor 3 plate reader.
Cancer or endothelial cells were seeded into fibronectin-coated 96-well plates (2×10^4 cells/well). […]
Second, HUVEC were serum starved and treated with PITs (25, 50 100 μM) or PIT-1 is (100 μM) for 8 hr, followed by bFGF (10 ng/ml) stimulation for 15 min. […] The number of cell ruffles/lamellipodia was counted in five random fields.

PI3K-PDK1-Akt pathway = assay: PIP3-regulated phosphorylation events in U87MG cells; format: cell-based, human
Experimental: The effect of PIT-1 on PIP3-mediated signaling was examined in U87MG glioblastoma cells, which show elevated basal levels of PIP3 due to the loss of PTEN. Pore N et al. (2003) Cancer Res 63:236-41.

Akt PH domain = Akt PH domain (Homo sapiens (Human), UniProt P31749); assay: Fluorescence polarization (FP) PIP3/Akt PH domain binding assay; conditions: for IC50: 15 nM TMR-conjugated PIP3, PITs 6.25-200 μM, 30 min; for activity of PIT-1 analogs in vitro: negative controls
Sequence of Akt PH domain (P31749 1-123): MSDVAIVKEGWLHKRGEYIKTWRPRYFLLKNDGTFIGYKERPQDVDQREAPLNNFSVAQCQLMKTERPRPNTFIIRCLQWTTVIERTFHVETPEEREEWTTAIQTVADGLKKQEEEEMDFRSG
Excerpt: In order to identify compounds that disrupt the interaction between PIP3 and PH domains, a high-throughput fluorescence polarization (FP)-binding assay was developed using recombinant 1-123 amino acid N-terminal fragment of human Akt1 (also referred to herein simply as Akt), encompassing the PH domain (PH123 protein), and fluorescent […] PIP3 molecule. The amino acid sequence of human Akt1 is publicly available as, for example, GenBank Accession No. NP_001014432.1 (SEQ ID NO:1), and the corresponding DNA sequence is publicly available as, for example, GenBank Accession No. NM_001014432. Briefly, 5 μM recombinant GST fusion proteins containing 1-123 a.a. N-terminal fragment of human Akt1 (PH 123) or 100 nM 441-551 a.a. region of human PDK1 were incubated with 15 nM TMR-labeled PIP3, PIP2, or PIP5 in buffer containing 50 mM Tris-HCl (pH 7.5), 150 mM NaCl, and 5 mM b-ME for 15 min at room temperature in the dark. FP values were determined using Wallac Victor 3 plate reader. For the primary screen, 50,000 diverse small molecules from Harvard Institute of Chemistry and Cell Biology were screened (iccb.med.harvard.edu). Incubations were carried out for 1 hr. For secondary assays, PIT compounds were added at various concentrations (6.25, 12.5, 25, 50, 100, 150 and 200 μM), followed by a 30 min incubation. The inhibition rates were calculated as inhibition rate=[1−(compound-treated group/control group)]×100%, and IC50 value was determined using Origin6 software (MicroCal, LLC, Northampton, Mass.).

human cancer cells = assay: Cancer cell migration, transwell migration and wound closure models; format: cell-based; conditions: for cancer cell migration: model not specified
Experimental: as §1
Cancer or endothelial cells were seeded into fibronectin-coated 96-well plates (2×10^4 cells/well). After reaching confluence, cell monolayers were scratched with a pipette tip to obtain a “wound”. The media and dislodged cells were aspirated and replaced by fresh serum-free media in the presence of growth factors, with or without compounds at different concentrations. After an 8-hr incubation at 37° C., cells were photographed using a phase-contrast microscope in five random fields. The width of wounded cell monolayers in images was measured and the inhibition rates of migration were calculated as inhibition rate=[1−(compound-treated group/control group)]×100%, and IC50 value was determined using Origin6 software (MicroCal, LLC, Northampton, Mass.).

[1] = test system: SUM159 cells transfected with VAV2 or WAVE2; assay: Lamellipodia formation and membrane translocation in VAV/WAVE-transfected cells; format: cell-based, human; conditions: 100 μM, 2 hr
Excerpt: Of the PIP3-binding actin-regulating factors, VAV and WAVE family proteins have been identified as important PIP3-interacting proteins regulating actin polymerization, lamellipodia formation, and cell motility in response to growth factor stimulation. Hornstein I et al. (2004) Cell Signal 16:1-11; Oikawa T et al. (2004) Nat Cell Biol 6:420-6. Therefore, the effect of PIT-1 on the cellular localization of GFP fusions of VAV and WAVE proteins was investigated. SUM159 cells transfected with VAV2 or WAVE2 GFP vectors were treated with PIT-1, PIT-2, PIT-1i-1, or PIT-1i-2 (100 μM) for 2 hr. Alternatively, cells were serum starved overnight, treated with these same compounds and then stimulated with PDGF 100 ng/ml for 15 min. Subsequently, actin fibers were stained with TRITC-phalloidin and analyzed using fluorescent microscopy. The numbers of cell ruffles/lamellipodia were counted in five random fields.

SMILES | cell viability under tube formation conditions (HUVEC) | cancer cell invasion through matrigel (cancer cells) | cytotoxic effects at concentrations used in migration and invasion experiments (cancer cells; P>0.05) | acquisition of invasive phenotype by SUM-159 cells (cancer cells; reversible) | migration of HUVEC cells (HUVEC cells) | PI3K-PDK1-Akt signaling in U87MG cells (PI3K-PDK1-Akt pathway) | IC50 (Akt PH domain) [µM] | growth factor-induced transwell migration (human cancer cells; dose-dependent) | cancer cell migration (human cancer cells) | activity of PIT-1 analogs in vitro (Akt PH domain) | lamellipodia formation and membrane translocation of VAV/WAVE proteins [1]
O=C(NC(=S)Nc1cc([N+](=O)[O-])cc(Cl)c1O)c1ccccc1 [PIT-1] | No loss of cell viability | efficiently suppressed cancer cell invasion through matrigel | no significant cytotoxic effects | blocked acquisition of the invasive phenotype | efficiently blocked migration of HUVEC cells | suppressed activity of the PI3K-PDK1-Akt pathway | 31 ± 2.5 | substantially inhibited | much stronger than that of Akt kinase inhibitor VIII | – | –
O=C(NC(=O)c1ccccc1)Nc1cc([N+](=O)[O-])cc(Cl)c1O [PIT-1i-1, reference compound] | – | – | – | – | – | failed to inhibit PDK1/Akt signaling | > 200 | – | neither PIT-1i-1 nor PIT-1i-2 was active | inactive analogs | inactive
COc1c(Cl)cc([N+](=O)[O-])cc1NC(=S)NC(=O)c1ccccc1 [PIT-1i-2] | – | – | – | – | – | failed to inhibit PDK1/Akt signaling | > 200 | – | neither PIT-1i-1 nor PIT-1i-2 was active | inactive analogs | inactive
